Test results: patent US20240226072A1 (Stichting Het Nederlands Kanker Instituut, priority 2022, published 2024)
Where two headings read alike, the source gives them in different places.

Experiment: Plasma pharmacokinetics and tissue distribution 2 h after oral cabazitaxel 10 mg/kg with vehicle or 25 mg/kg ritonavir in wild-type, Oatp1a/1b−/−, Oatp1a/1b/2b1−/−, OATP1B1- and OATP1B3-transgenic mice
Format: in vivo
Settings: for CLiver / Cbrain / Pbrain, brain accumulation per h / SIC (% of dose), small intestinal content / Kp at 2 h: 2 h; for enhancement of AUC0-2h by ritonavir: ritonavir 25 mg/kg compared to respective vehicle group; for AUC(0-t) / Kp at 2 h / Cmax / Tmax: male, FVB, mouse; for AUC(0-t) / Cmax / Tmax: plasma; for AUC(0-t): read-out: AUC0-2 h
Method: All animals were fasted 2 to 3 hours prior to the start of the experiment to minimize variation in absorption after oral administration. […] Subsequently, cardiac puncture was performed with a heparinized needle and syringe collecting a final blood sample. […] All samples were stored at −30° C. until analysis.
Differences were considered statistically significant when P<0.05. All data are presented as geometric mean±SD.

[1] = OATP1B1-transgenic mice, ritonavir 25 mg/kg oral, cabazitaxel 10 mg/kg oral
[2] = OATP1B1-transgenic mice, vehicle, cabazitaxel 10 mg/kg oral
[3] = OATP1B3-transgenic mice, ritonavir 25 mg/kg oral, cabazitaxel 10 mg/kg oral
[4] = OATP1B3-transgenic mice, vehicle, cabazitaxel 10 mg/kg oral
[5] = Oatp1a/1b/2b1−/− mice, ritonavir 25 mg/kg oral, cabazitaxel 10 mg/kg oral
[6] = Oatp1a/1b/2b1−/− mice, vehicle, cabazitaxel 10 mg/kg oral
[7] = Oatp1a/1b−/− mice, ritonavir 25 mg/kg oral, cabazitaxel 10 mg/kg oral
[8] = Oatp1a/1b−/− mice, vehicle, cabazitaxel 10 mg/kg oral
[9] = po, 10 mg/kg, OATP1B1-transgenic mice, ritonavir 25 mg/kg oral, cabazitaxel 10 mg/kg oral
[10] = po, 10 mg/kg, OATP1B1-transgenic mice, vehicle pretreatment, oral 10 mg/kg cabazitaxel
[11] = po, 10 mg/kg, OATP1B1-transgenic mice, vehicle, cabazitaxel 10 mg/kg oral

CO[C@H]1C(=O)[C@]2(C)[C@@H](OC)C[C@H]3OC[C@@]3(OC(C)=O)[C@H]2[C@H](OC(=O)c2ccccc2)[C@]2(O)C[C@H](OC(=O)[C@H](O)[C@@H](NC(=O)OC(C)(C)C)c3ccccc3)C(C)=C1C2(C)C [cabazitaxel]
CLiver [1]: 22966 pmol/g | Cbrain [1]: 275 pmol/g | Pbrain, brain accumulation per h [1]: 0.031 h⁻¹ | SIC (% of dose), small intestinal content [1]: 1.93 % of dose | CLiver [2]: 3150 pmol/g | Cbrain [2]: 59.0 pmol/g | Pbrain, brain accumulation per h [2]: 0.014 h⁻¹ | SIC (% of dose), small intestinal content [2]: 1.43 % of dose | CLiver [3]: 21217 pmol/g | Cbrain [3]: 245 pmol/g | Pbrain, brain accumulation per h [3]: 0.032 h⁻¹ | SIC (% of dose), small intestinal content [3]: 1.06 % of dose | CLiver [4]: 2777 pmol/g | Cbrain [4]: 55.8 pmol/g | Pbrain, brain accumulation per h [4]: 0.014 h⁻¹ | SIC (% of dose), small intestinal content [4]: 1.00 % of dose | enhancement of AUC0-2h by ritonavir (Oatp1a/1b/2b1−/− mice): 2.4 fold | CLiver [5]: 21464 pmol/g | Cbrain [5]: 262 pmol/g | Pbrain, brain accumulation per h [5]: 0.029 h⁻¹ | SIC (% of dose), small intestinal content [5]: 1.67 % of dose | CLiver [6]: 2979 pmol/g | Cbrain [6]: 49.4 pmol/g | Pbrain, brain accumulation per h [6]: 0.013 h⁻¹ | SIC (% of dose), small intestinal content [6]: 2.22 % of dose | enhancement of AUC0-2h by ritonavir (Oatp1a/1b−/− mice): 3.0 fold | CLiver [7]: 20747 pmol/g | Cbrain [7]: 323 pmol/g | Pbrain, brain accumulation per h [7]: 0.035 h⁻¹ | SIC (% of dose), small intestinal content [7]: 0.91 % of dose | CLiver [8]: 2758 pmol/g | Cbrain [8]: 45.2 pmol/g | Pbrain, brain accumulation per h [8]: 0.014 h⁻¹ | SIC (% of dose), small intestinal content [8]: 0.32 % of dose | AUC(0-t) (OATP1B1-transgenic (Oatp1a/1b−/− background), po, 10 mg/kg, OATP1B1-transgenic mice, ritonavir 25 mg/kg oral, cabazitaxel 10 mg/kg oral): 7.91 µM·h | AUC(0-t) (OATP1B1-transgenic (Oatp1a/1b−/− background), po, 10 mg/kg, OATP1B1-transgenic mice, vehicle, cabazitaxel 10 mg/kg oral): 3.7 µM·h | AUC(0-t) (OATP1B3-transgenic (Oatp1a/1b−/− background), po, 10 mg/kg, OATP1B3-transgenic mice, ritonavir 25 mg/kg oral, cabazitaxel 10 mg/kg oral): 6.57 µM·h | AUC(0-t) (OATP1B3-transgenic (Oatp1a/1b−/− background), po, 10 mg/kg, OATP1B3-transgenic mice, vehicle, cabazitaxel 10 mg/kg oral): 3.51 µM·h | AUC(0-t) (Oatp1a/1b/2b1−/−, po, 10 mg/kg, Oatp1a/1b/2b1−/− mice, ritonavir 25 mg/kg oral, cabazitaxel 10 mg/kg oral): 6.8 µM·h | AUC(0-t) (Oatp1a/1b/2b1−/−, po, 10 mg/kg, Oatp1a/1b/2b1−/− mice, vehicle, cabazitaxel 10 mg/kg oral): 2.88 µM·h | AUC(0-t) (Oatp1a/1b−/−, po, 10 mg/kg, Oatp1a/1b−/− mice, ritonavir 25 mg/kg oral, cabazitaxel 10 mg/kg oral): 7.89 µM·h | AUC(0-t) (Oatp1a/1b−/−, po, 10 mg/kg, Oatp1a/1b−/− mice, vehicle, cabazitaxel 10 mg/kg oral): 2.62 µM·h | Kp at 2 h (brain/plasma, po, 10 mg/kg, OATP1B1-transgenic mice, vehicle, cabazitaxel 10 mg/kg oral, read-out: Brain-to-plasma ratio): 0.054 | Kp at 2 h (brain/plasma, po, 10 mg/kg, OATP1B3-transgenic mice, vehicle, cabazitaxel 10 mg/kg oral, read-out: Brain-to-plasma ratio): 0.067 | Kp at 2 h (brain/plasma, po, 10 mg/kg, Oatp1a/1b/2b1−/− mice, vehicle, cabazitaxel 10 mg/kg oral, read-out: Brain-to-plasma ratio): 0.064 | Kp at 2 h (brain/plasma, po, 10 mg/kg, Oatp1a/1b−/− mice, vehicle, cabazitaxel 10 mg/kg oral, read-out: Brain-to-plasma ratio): 0.064 | Kp at 2 h (brain/plasma, po, 10 mg/kg, wild-type mice, vehicle, cabazitaxel 10 mg/kg oral, read-out: Brain-to-plasma ratio): 0.069 | Kp at 2 h (brain/plasma, po, OATP1B1-transgenic mice, ritonavir 25 mg/kg oral, cabazitaxel 10 mg/kg oral, read-out: Brain-to-plasma ratio): 0.045 | Kp at 2 h (brain/plasma, po, OATP1B3-transgenic mice, ritonavir 25 mg/kg oral, cabazitaxel 10 mg/kg oral, read-out: Brain-to-plasma ratio): 0.046 | Kp at 2 h (brain/plasma, po, Oatp1a/1b/2b1−/− mice, ritonavir 25 mg/kg oral, cabazitaxel 10 mg/kg oral, read-out: Brain-to-plasma ratio): 0.047 | Kp at 2 h (brain/plasma, po, Oatp1a/1b−/− mice, ritonavir 25 mg/kg oral, cabazitaxel 10 mg/kg oral, read-out: Brain-to-plasma ratio): 0.055 | Kp at 2 h (brain/plasma, po, wild-type mice, ritonavir 25 mg/kg oral, cabazitaxel 10 mg/kg oral, read-out: Brain-to-plasma ratio): 0.036 | Kp at 2 h (liver, oral, 10 mg/kg, OATP1B1-transgenic mice, vehicle, cabazitaxel 10 mg/kg oral, read-out: Liver-to-plasma ratio): 3.1 | Kp at 2 h (liver, oral, 10 mg/kg, OATP1B3-transgenic mice, vehicle, cabazitaxel 10 mg/kg oral, read-out: Liver-to-plasma ratio): 3.61 | Kp at 2 h (liver, oral, 10 mg/kg, Oatp1a/1b/2b1−/− mice, vehicle, cabazitaxel 10 mg/kg oral, read-out: Liver-to-plasma ratio): 3.84 | Kp at 2 h (liver, oral, 10 mg/kg, Oatp1a/1b−/− mice, vehicle, cabazitaxel 10 mg/kg oral, read-out: Liver-to-plasma ratio): 3.95 | Kp at 2 h (liver, oral, 10 mg/kg, wild-type mice, vehicle, cabazitaxel 10 mg/kg oral, read-out: Liver-to-plasma ratio): 3.93 | Kp at 2 h (liver, oral, OATP1B1-transgenic mice, ritonavir 25 mg/kg oral, cabazitaxel 10 mg/kg oral, read-out: Liver-to-plasma ratio): 3.84 | Kp at 2 h (liver, oral, OATP1B3-transgenic mice, ritonavir 25 mg/kg oral, cabazitaxel 10 mg/kg oral, read-out: Liver-to-plasma ratio): 4.15 | Kp at 2 h (liver, oral, Oatp1a/1b/2b1−/− mice, ritonavir 25 mg/kg oral, cabazitaxel 10 mg/kg oral, read-out: Liver-to-plasma ratio): 3.95 | Kp at 2 h (liver, oral, Oatp1a/1b−/− mice, ritonavir 25 mg/kg oral, cabazitaxel 10 mg/kg oral, read-out: Liver-to-plasma ratio): 3.62 | Kp at 2 h (liver, oral, wild-type mice, ritonavir 25 mg/kg oral, cabazitaxel 10 mg/kg oral, read-out: Liver-to-plasma ratio): 3.32 | Cmax [9]: 4670 nM | Tmax [9]: 65 min | Cmax [10]: 2730 ± 855 nM | Tmax [10]: 27.5 min | AUC(0-t) (po, 10 mg/kg, OATP1B1-transgenic mice, vehicle pretreatment, oral 10 mg/kg cabazitaxel, 0-2 h): 3.7 ± 1.23 µM·h | Cmax [11]: 2730 nM | Tmax [11]: 27.5 min
